According to US10342804B2, “Steroid compound for use in the treatment of hepatic encephalopathy” (Umecrine Cognition AB, priority 2014, dated 2019):

Experiments:
[1] = Exposure in plasma and brain tissue, PCS rats (Example 13); assay type: in vivo, rat; conditions: for Total concentration in plasma: at the time for behavioral testing
Procedure: Male Wistar rats (220-240 g) were anesthetized with isoflurane, and an end-to side porta-caval anastomosis was performed as described by Lee and Fisher (Surgery, 1961, 50, 668-672).
Rats that were subjected to the porta-caval anastomosis procedure are herein referred to as “PCS rats”.
(§1) 3α-ethynyl-3β-hydroxyandrostan-17-one oxime in sesame oil was administered by subcutaneous injections in the back of the rats, once daily. Two different sets of experiments were performed in hyperammonemic rats. In the first set four groups of rats were used: 1) control rats injected with vehicle; 2) hyperammonemic rats injected with vehicle; 3) control rats injected with 20 mg/Kg of 3α-ethynyl-3β-hydroxyandrostan-17-one oxime and 4) hyperammonemic rats injected with 20 mg/Kg of 3α-ethynyl-3β-hydroxyandrostan-17-one oxime.
For the experiments using PCS rats, the following groups of rats were used: 1) Sham rats injected with vehicle; 2) PCS rats injected with vehicle; 3-4) PCS rats injected with 0.7 or 2.5 mg/Kg of 3α-ethynyl-3β-hydroxyandrostan-17-one oxime. The number of rats used in each experiment is either shown in the corresponding Figure or given in the description of the corresponding Figure.
At the end of the treatment period plasma was collected from the tail vein, and after sacrifice by decapitation brains were collected and immediately frozen on dry ice. For analysis of 3α-ethynyl-3β-hydroxyandrostan-17-one oxime exposure, brain tissue was homogenized with a 1:4 ratio of tissue: PBS (pH 7.4) and then extracted with a 2-fold volume of methanol:acetonitrile (1:1), while plasma was protein-precipitated with a 3-fold volume with acetonitrile. Analyses were performed by Waters ACQUITY UPLC+Waters XEVO-TQS triple quadrupole mass spectrometer (Admescope Oy, Oulu, Finland). For calculations of the amount of free 3α-ethynyl-3β-hydroxyandrostan-17-one oxime exposure in the brain the fraction unbound (Fb) in brain homogenates were determined by dialysis, Fub in HA=[…] and Fub in PCS=1.43% (Admescope Oy, Oulu, Finland).

[2] = system: hyperammonemic rats; assay: Morris water maze memory test, hyperammonemic rats (Example 9); assay type: in vivo, rat
Procedure: (§2) Male Wistar rats (140-160 g) were made hyperammonemic by feeding them a diet containing ammonium acetate (30% by weight) (Felipo et al, European Journal of Biochemistry, 1988, 176, 567-571).
as §1
(§3) In the second set of experiments five groups of rats were used: 1) control rats injected with vehicle; 2) hyperammonemiac rats injected with vehicle and 3-5) hyperammonemic rats injected with 3, 10 or 20 mg/Kg of 3α-ethynyl-3β-hydroxyandrostan-17-one oxime. In each experiment 6-8 rats per group were used.
The test was carried out as described by Monfort et al. (European Journal of Neuroscience, 2007, 25, 2103-2111) using a circular pool (160 cm diameter, 40 cm height) arbitrarily divided into four quadrants. After pre-training, the rats were trained to learn the fixed location of the invisible platform over 3 days. Training involved placing the rat into the pool facing the wall in one of the three quadrants lacking the platform. A different starting point was randomly used on each trial. Training consisted of three swims per day. Each animal was allowed a maximum of 120 seconds to find the platform and was left for 20 seconds on the platform. […] The time needed to find the hidden platform was recorded manually and used as a measure of learning of the task.
Spatial memory was assessed 24 hours later by removing the platform and measuring the time spent by the rat in the quadrant where the platform was.

[3] = system: receptors, ion channels and enzymes, including all major classes of neurotransmitter receptors; assay: Binding selectivity screen, 113 targets (Perkin Elmer customized screen); conditions: 10 μM, duplicate; neurotransmitter related receptors, steroid receptors, peptide receptors
Procedure: The binding of 3α-ethynyl-3β-hydroxyandrostan-17-one oxime was determined for receptors, ion channels and enzymes, including all major classes of neurotransmitter receptors. In total 113 targets were tested in duplicate with 3α-ethynyl-3β-hydroxyandrostan-17-one oxime at 10 μM (Perkin Elmer, Customized screen). Binding activity was defined as greater than or equal to 50% inhibition of ligand binding.

[4] = system: hyperammonemic rats; assay: Radial maze test, hyperammonemic rats (Example 10); assay type: in vivo, rat
Procedure: as §2, §1, §3
The apparatus was composed of a central area that gave access to eight equally-sized arms. The arms were 70 cm long and 10 cm wide and the central area was 30 cm in diameter. […] Rats were allowed to explore the maze for 10 minutes on two consecutive days in the presence of distal cues to adapt to the maze. Training in the radial maze was composed of three trials per day on six consecutive days. The task involved locating four pellets, each placed at the end of a different arm according to a random configuration as described by Hernandez-Rabaza et al. (Addiction Biology, 2010, 15, 413-423). The number of working memory errors (visits to arms already visited in the same trial) were recorded and expressed as working errors.

[5] = system: blood ammonia; assay: Ammonia determination in blood (Example 5); assay type: in vivo, rat
From the text: The study was divided into two series with animals (male Wistar rats), each series included the following groups; Controls treated with vehicle (CV, n=8 per series), Controls treated with 3α-ethynyl-3β-hydroxyandrostan-17-one oxime (C+GAM, n=8 per series), hyperammonemic rats treated with vehicle (HAV, n=8 per series), hyperammonemic rats treated with 3α-ethynyl-3β-hydroxyandrostan-17-one oxime (HA+GAM, n=8 per series). The once daily treatment with 3α-ethynyl-3β-hydroxyandrostan-17-one oxime at 20 mg/kg or with vehicle was performed with subcutaneous injections of 1 ml/kg around 9 a.m. Treatment started one week after starting with the ammonium containing diet and continued for the whole experimental period.
Blood was obtained from the tail of the rats (from Example 2) in the end of second week of ammonia treatment and first week of 3α-ethynyl-3β-hydroxyandrostan-17-one oxime treatment and also from the neck during the animal sacrifice. To obtain the plasma it was added EDTA […] and centrifuged at 1500 r.p.m during 5 minutes.
Ammonia concentration in blood samples was measured using the Pocket chem BA (Woodley Equipment Company Ltd, United Kingdom), an ammonia analyzer. The device enables immediate testing and delivers results in 3 minutes and 20 s. It also eliminates the need for pre-processes such as centrifugal separation.

For `C#C[C@]1(O)CC[C@@]2(C)C(CC[C@@H]3[C@@H]2CC[C@]2(C)/C(=N\O)CC[C@@H]32)C1` (stereo partly drawn) [3α-ethynyl-3β-hydroxyandrostan-17-one oxime], the “Unbound concentration in the brain” value ([1]; 0.7 mg/kg/day s.c.) was 6.18 ± 0.97 nmol/kg, the “Total concentration in plasma” value ([1]; 0.7 mg/kg/day s.c.) was 0.48 ± 0.09 µM and the “Unbound concentration in the brain” value ([1]; 2.5 mg/kg/day s.c.) was 17 ± 2 nmol/kg. The “Total concentration in plasma” value ([1]; 2.5 mg/kg/day s.c.) was 1.64 ± 0.30 µM, the “Percentage of time spent in the correct quadrant, Morris water maze memory test” value (shortened to “Percentage of time spent”) ([2]; 3 mg/kg) was 41±4% and the “Percentage of time spent” value ([2]; 10 mg/kg) was 42±5%. The “Percentage of time spent” value ([2]; 20 mg/kg) was 38±3%, the “Binding activity (greater than or equal to 50% inhibition of ligand binding)” value [3] was “did not show binding activity” and the “Number of working errors in days 1-2, radial maze” value (“Number of working errors” below) ([4]; 3 mg/kg) was 6.5±2.8 errors. The “Number of working errors” value ([4]; 10 mg/kg) was 8.8±1.9 errors, the “Number of working errors” value ([4]; 20 mg/kg) was 12±2 errors and the Blood ammonia levels ([5]; control rats treated with 20 mg/kg s.c. once daily) was 55 ± 7 µM. It also gave a Blood ammonia levels ([5]; hyperammonemic rats treated with 20 mg/kg s.c. once daily) of 139 ± 15 µM.
